In patent US20240199608A1 (Eli Lilly and Company, priority 2022, published 2024):

Biological target: T1, Human AhR (Homo sapiens, UniProt P35869)
T1 construct: expressed in transfected cells
T1 sequence (P35869 11-848): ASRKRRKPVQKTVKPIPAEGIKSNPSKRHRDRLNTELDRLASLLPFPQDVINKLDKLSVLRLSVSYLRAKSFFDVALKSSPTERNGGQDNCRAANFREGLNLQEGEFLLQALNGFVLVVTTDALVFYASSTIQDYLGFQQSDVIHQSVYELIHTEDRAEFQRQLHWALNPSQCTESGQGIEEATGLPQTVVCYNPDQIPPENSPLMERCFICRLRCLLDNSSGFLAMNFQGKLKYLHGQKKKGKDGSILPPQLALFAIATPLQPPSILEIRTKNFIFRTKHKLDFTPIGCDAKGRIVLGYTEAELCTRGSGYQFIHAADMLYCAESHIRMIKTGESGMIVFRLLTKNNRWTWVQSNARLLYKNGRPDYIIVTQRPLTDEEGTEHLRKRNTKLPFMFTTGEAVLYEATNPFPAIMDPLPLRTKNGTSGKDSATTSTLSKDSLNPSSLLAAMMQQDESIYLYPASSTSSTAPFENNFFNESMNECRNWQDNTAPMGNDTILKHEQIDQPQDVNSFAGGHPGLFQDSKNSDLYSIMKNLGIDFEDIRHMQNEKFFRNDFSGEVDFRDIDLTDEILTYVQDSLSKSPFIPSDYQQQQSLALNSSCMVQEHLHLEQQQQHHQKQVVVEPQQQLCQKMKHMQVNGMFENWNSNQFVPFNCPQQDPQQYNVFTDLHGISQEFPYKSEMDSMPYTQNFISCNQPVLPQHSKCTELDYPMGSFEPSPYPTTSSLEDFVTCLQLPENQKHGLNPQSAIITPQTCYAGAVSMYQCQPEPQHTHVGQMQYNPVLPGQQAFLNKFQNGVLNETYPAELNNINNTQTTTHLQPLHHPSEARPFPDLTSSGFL
Test: hAHR Nuclear Translocation Assay
Format: cell-based
Details: AhR-EGFP nuclear translocation in Jump-In T-REx HEK293 cells, 45 minutes incubation; class symbols; read-out: Rel EC50
Source text: The purpose of this assay is to measure the ability of compounds to bind to, activate, and induce the translocation of AhR into the nucleus of a cell for transcription. Stable cell lines were established using Jump-InTM T-RExTM HEK293 Retargeting Kit (Life Technologies). Human AhR cDNA was cloned into the pJTI R4 CMV-TO EGFP vector. The EGFP was cloned to the C-terminal of AHR to form AhR-EGFP chimera. The pJTI R4 CMV-TO AhR-EGFP vector was transfected using FuGENE® HD into Jump-InTM T-RExTM HEK293 cells. Transfected cells were selected using 2.5 mg/ml G418 for 10 to 14 days, then expanded, harvested, and suspended in freeze media (FBS with 8% DMSO) at 2×10^7 cells/ml, and aliquots were stored in liquid nitrogen. One day before the assay date, cells were thawed and resuspended in DMEM with 5% FBS in the presence of 1 μg/ml Doxycycline and plated into ploy-L-Lysine coated […]-384 ULTRA Microplates (Perkin Elmer) at 12,000 to 15,000 cells per well and incubated at 37° C. and 5% CO2 overnight. On the assay date, compound was serially diluted (1:2) into 384-well nunc plates with DMSO using acoustic dispensing (ECHO®). The dose response was a 20-point curve. […] The culture media was damped and 25 μl of DMEM plus 0.1% BSA was added, then 25 μL of compound in DMEM plus 0.1% BSA was added into cell plates. Cells were incubated compounds at 37° C. and 5% CO2 for 45 minutes. The final DMSO concentration was 0.2%. The media was damped after 45 minutes incubation. The cells were fixed with 40 μl of cold MeOH (-20° C.) for 20 minutes. The MeOH was damped and 50 μL of DPBS containing 1 μg/mL Hochst was added into the cell plates. The intensity of EGFP was quantitated by using Opera PHENIX® or OPERETTA® high content image system (Perkin Elmer) with 20× Water Objective and five field per well. The ratio of EGFP fluorescent intensity in nuclear over cytosol was analyzed using a 4-parameter nonlinear logistic equation to determine the potency of AhR agonists.

| EC50 [nM] | SMILES |
| --- | --- |
| > 50 | CC1CCc2c1cc(C(=O)Nc1ccccn1)c1nncn21 (single isomer, unassigned) [Example 4] |
| > 50 | COc1ccccc1NC(=O)c1cc2c(n3cnnc13)CCC2C (single isomer, unassigned) [Example 20, N-(2-methoxyphenyl)-6-methyl-7,8-dihydro-6H-cyclopenta[e][1,2,4] triazolo[4,3-a]pyridine-4-carboxamide] |
| > 50 | COc1ccccc1NC(=O)c1cc2c(n3cnnc13)CCC2C (single isomer, unassigned) [Example 21, N-(2-methoxyphenyl)-6-methyl-7,8-dihydro-6H-cyclopenta[e][1,2,4] triazolo[4,3-a]pyridine-4-carboxamide] |
| 1 to 10 | CC1CCc2c1cc(C(=O)Nc1nccs1)c1nncn21 (single isomer, unassigned) [Example 24, 6-Methyl-N-(thiazol-2-yl)-7,8-dihydro-6H-cyclopenta[e][1,2,4] triazolo[4,3-a]pyridine-4-carboxamide] |
| 1 to 10 | CC1CCc2c1cc(C(=O)Nc1nccs1)c1nncn21 (single isomer, unassigned) [Example 25, 6-Methyl-N-(thiazol-2-yl)-7,8-dihydro-6H-cyclopenta[e][1,2,4] triazolo[4,3-a]pyridine-4-carboxamide] |
| 1 to 10 | CC1CCc2c1cc(C(=O)Nc1ncc(C(F)(F)F)cn1)c1nncn21 (single isomer, unassigned) [Example 26, 6-Methyl-N-(5-(trifluoromethyl)pyrimidin-2-yl)-7,8-dihydro-6H-cyclopenta[e][1,2,4] triazolo[4,3-a]pyridine-4-carboxamide] |
| 1 to 10 | CC1CCc2c1cc(C(=O)Nc1ncc(C(F)(F)F)cn1)c1nncn21 (single isomer, unassigned) [Example 27, 6-Methyl-N-(5-(trifluoromethyl)pyrimidin-2-yl)-7,8-dihydro-6H-cyclopenta[e][1,2,4] triazolo[4,3-a]pyridine-4-carboxamide] |
| 10 to 50 | Cc1cnc(NC(=O)c2cc3c(n4cnnc24)CCC3C)nc1 (single isomer, unassigned) [Example 28, 6-Methyl-N-(5-methylpyrimidin-2-yl)-7,8-dihydro-6H-cyclopenta[e][1,2,4]tria zolo[4,3-a]pyridine-4-carboxamide] |
| 10 to 50 | Cc1cnc(NC(=O)c2cc3c(n4cnnc24)CCC3C)nc1 (single isomer, unassigned) [Example 29, 6-Methyl-N-(5-methylpyrimidin-2-yl)-7,8-dihydro-6H-cyclopenta[e][1,2,4]tria zolo[4,3-a]pyridine-4-carboxamide] |
| 10 to 50 | CC1CCc2c1cc(C(=O)Nc1ncco1)c1nncn21 (single isomer, unassigned) [Example 30, 6-Methyl-N-(oxazol-2-yl)-7,8-dihydro-6H-cyclopenta[e][1,2,4] triazolo[4,3-a]pyridine-4-carboxamide] |
| 10 to 50 | CC1CCc2c1cc(C(=O)Nc1ncco1)c1nncn21 (single isomer, unassigned) [Example 31, 6-Methyl-N-(oxazol-2-yl)-7,8-dihydro-6H-cyclopenta[e][1,2,4] triazolo[4,3-a]pyridine-4-carboxamide] |
| 1 to 10 | CC1CCc2c1cc(C(=O)Nc1ccon1)c1nncn21 (single isomer, unassigned) [Example 32] |
| > 50 | CC1CCc2c1cc(C(=O)Nc1ccon1)c1nncn21 (single isomer, unassigned) [Example 33] |
| 1 to 10 | CC1CCc2c1cc(C(=O)Nc1ccc(C(F)(F)F)cn1)c1nncn21 (single isomer, unassigned) [Example 34, 6-Methyl-N-(5-(trifluoromethyl)95yridine-2-yl)-7,8-dihydro-6H-cyclopenta[e][1,2,4] triazolo[4,3-a]pyridine-4-carboxamide] |
| 1 to 10 | CC1CCc2c1cc(C(=O)Nc1ccc(C(F)(F)F)cn1)c1nncn21 (single isomer, unassigned) [Example 35, 6-Methyl-N-(5-(trifluoromethyl)pyridin-2-yl)-7,8-dihydro-6H-cyclopenta[e][1,2,4] triazolo[4,3-a]pyridine-4-carboxamide] |
| 1 to 10 | CC1CCc2c1cc(C(=O)Nc1ncccc1F)c1nncn21 (single isomer, unassigned) [Example 36, N-(3-Fluoropyridin-2-yl)-6-methyl-7,8-dihydro-6H-cyclopenta[e][1,2,4] triazolo[4,3-a]pyridine-4-carboxamide] |
| 1 to 10 | CC1CCc2c1cc(C(=O)Nc1ncccc1F)c1nncn21 (single isomer, unassigned) [Example 37, N-(3-Fluoropyridin-2-yl)-6-methyl-7,8-dihydro-6H-cyclopenta[e][1,2,4] triazolo[4,3-a]pyridine-4-carboxamide] |

Same assay, conditions: AhR-EGFP nuclear translocation in Jump-In T-REx HEK293 cells, 45 minutes incubation; numeric values; read-out: Rel EC50

| EC50 [nM] | SMILES |
| --- | --- |
| 5.37 | CC1CCc2c1cc(C(=O)Nc1ccccn1)c1nncn21 (single isomer, unassigned) [Example 3] |
| 11.1 | CC1CCc2c1cc(C(=O)Nc1ncccn1)c1nncn21 (single isomer, unassigned) [Example 7, 6-Methyl-N-(pyrimidin-2-yl)-7,8-dihydro-6H-cyclopenta[e][1,2,4] triazolo[4,3-a]pyridine-4-carboxamide] |
| 25.3 | C[C@H]1CCc2c1cc(C(=O)Nc1ncccn1)c1nncn21 (single isomer, unassigned) [Example 8, 6-Methyl-N-(pyrimidin-2-yl)-7,8-dihydro-6H-cyclopenta[e][1,2,4]triazolo [4,3-a]pyridine-4-carboxamide] |
| 3.37 | CC1CCc2c1cc(C(=O)Nc1ccccn1)c1nccn21 (single isomer, unassigned) [Example 9, 6-Methyl-N-(pyridin-2-yl)-7,8-dihydro-6H-cyclopenta[e]imidazo[1,2-a]pyridine-4-carboxamide] |
| 1.32 | C[C@H]1CCc2c1cc(C(=O)Nc1ccccn1)c1nccn21 (single isomer, unassigned) [Example 10, 6-Methyl-N-(pyridin-2-yl)-7,8-dihydro-6H-cyclopenta[e]imidazo[1,2-a]pyridine-4-carboxamide] |
| 1.58 | CC1CCc2c1cc(C(=O)Nc1ncccn1)c1nccn21 (single isomer, unassigned) [Example 11, 6-Methyl-N-(pyrimidin-2-yl)-7,8-dihydro-6H-cyclopenta[e]imidazo[1,2-a]pyridine-4-carboxamide] |
| 9.8 | C[C@H]1CCc2c1cc(C(=O)Nc1ncccn1)c1nccn21 (single isomer, unassigned) [Example 12, 6-Methyl-N-(pyrimidin-2-yl)-7,8-dihydro-6H-cyclopenta[e]imidazo[1,2-a]pyridine-4-carboxamide] |
| 0.495 | CC1CCc2c1cc(C(=O)Nc1ncc(F)cn1)c1nccn21 (single isomer, unassigned) [Example 13, N-(5-Fluoropyrimidin-2-yl)-6-methyl-7,8-dihydro-6H-cyclopenta[e]imidazo[1,2-a]pyridine-4-carboxamide] |
| 1.66 | C[C@H]1CCc2c1cc(C(=O)Nc1ncc(F)cn1)c1nccn21 (single isomer, unassigned) [Example 14, N-(5-Fluoropyrimidin-2-yl)-6-methyl-7,8-dihydro-6H-cyclopenta[e]imidazo[1,2-a]pyridine-4-carboxamide] |
